Laboratory results from article PMC3710259, “Experimental detection of proteolytic activity in a signal peptide peptidase of Arabidopsis thaliana” (BMC Biochemistry, 2013).

Experiments:
AtSPP-GFP = target: T1, AtSPP-GFP (Arabidopsis thaliana, UniProt O81062); experiment: gel immunoblot cleavage assay of myc-Prl-PP-FLAG with DDM-solubilised membranes; type: biochemical; conditions: 1 μM myc-Prl-PP-FLAG substrate, 0.25% DDM, 37°C, 15 h; 50 μM inhibitor
T1 construct: gene SPP; full length with C-terminal yEGFP-octa-His tag kept, expressed in Saccharomyces cerevisiae BY2777; DDM-solubilised yeast membranes; estimated 65 kDa
T1 sequence (O81062 1-344): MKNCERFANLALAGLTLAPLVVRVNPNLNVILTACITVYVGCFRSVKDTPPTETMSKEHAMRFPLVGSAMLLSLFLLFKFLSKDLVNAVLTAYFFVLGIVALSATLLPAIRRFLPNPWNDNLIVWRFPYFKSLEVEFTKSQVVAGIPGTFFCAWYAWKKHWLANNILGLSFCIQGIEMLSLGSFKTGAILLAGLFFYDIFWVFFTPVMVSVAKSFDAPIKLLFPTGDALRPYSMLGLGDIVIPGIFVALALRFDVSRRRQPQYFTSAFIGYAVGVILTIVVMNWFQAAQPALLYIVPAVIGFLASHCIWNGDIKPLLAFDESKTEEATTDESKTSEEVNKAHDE

native human SPP (HsSPP) = target: T2, native human SPP (HsSPP) (Homo sapiens, UniProt Q8TCT9); experiment: as above; type: biochemical; conditions: 1 μM myc-Prl-PP-FLAG substrate, 0.25% DDM, 37°C; 10 μM inhibitor
T2 construct: gene HM13; endogenous, untagged, in DDM-solubilised membrane fraction of HEK293T cells
T2 sequence (Q8TCT9 1-377): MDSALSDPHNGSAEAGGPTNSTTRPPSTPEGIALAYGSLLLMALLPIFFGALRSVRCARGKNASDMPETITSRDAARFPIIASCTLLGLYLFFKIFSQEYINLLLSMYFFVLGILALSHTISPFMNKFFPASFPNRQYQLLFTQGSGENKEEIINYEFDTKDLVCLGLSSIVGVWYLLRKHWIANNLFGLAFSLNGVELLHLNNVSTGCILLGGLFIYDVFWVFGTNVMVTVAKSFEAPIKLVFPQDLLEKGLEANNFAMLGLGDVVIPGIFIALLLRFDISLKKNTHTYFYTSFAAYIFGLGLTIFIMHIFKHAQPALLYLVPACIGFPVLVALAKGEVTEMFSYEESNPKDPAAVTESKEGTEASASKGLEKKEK

CC(C)C[C@H](NC(=O)OCc1ccccc1)C(=O)N[C@@H](CC(C)C)C(=O)NCC(=O)CNC(=O)[C@H](CC(C)C)NC(=O)[C@H](CC(C)C)NC(=O)OCc1ccccc1 [(Z-LL)2-ketone, 1,3-di-(N-carboxybenzoyl-L-leucyl-L-leucyl) amino acetone]
inhibition at 50 μM (AtSPP-GFP): rate of proteolytic activity of AtSPP-GFP was weak, the activity was inhibited by the (Z-LL)2-ketone
inhibition at 10 μM (native human SPP (HsSPP)): the SPP was inhibited by the (Z-LL)2-ketone
